These results are taken from paper PMC9785280, “Synthesis, Antiproliferative Evaluation and QSAR Analysis of Novel Halogen- and Amidino-Substituted Benzothiazoles and Benzimidazoles” (International Journal of Molecular Sciences, 2022).

By IC50 is commonly meant the point on the concentration scale where inhibition reaches its midpoint. As a reminder, the melting point is the temperature, or range, at which the solid turns liquid.

The structures appear in SMILES notation. Read-outs that look alike come from different tables or passages of the source.

Data set [1] has as its system MDCK1 (Madin–Darby canine kidney) cells. Kind of data set: MTT antiproliferative assay, non-tumor MDCK1 cells. It is filed as cell-based. The note with it: Canis lupus familiaris, MDCK1, 72 h, mean ± SD of three independent experiments, normal cells. The procedure, abridged:
(§1)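 Cells are seeded and treated the next day with test agents across five 10-fold concentrations up to 10^−4 M, with a solvent control matched to working concentrations. After 72 h, dehydrogenase activity is measured by MTT reduction, and GI50 is derived from concentration–percent inhibition curves.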
(In general: Formazan colour is commonly taken as a measure of viable cells.)

Another data set deals with human fibroblasts (BJ). The data set is described as follows: MTT antiproliferative assay, normal BJ fibroblasts. The data set is classed as cell-based. To be noted: Homo sapiens, Fibroblast, 72 h, MTT, mean ± SD of three independent experiments; normal cells. The procedure, abridged:
as §1

The test system of data set [2] is HeLa (cervical adenocarcinoma) cells. The data set is described as follows: MTT antiproliferative assay, HeLa. The data set is classed as cell-based. The note with it: Homo sapiens, 72 h, mean ± SD of three independent experiments. The procedure, abridged:
as §1

Data set [3] concerns CaCo-2 (colon adenocarcinoma) cells. Kind of data set: MTT antiproliferative assay, CaCo-2. It is filed as cell-based, human. To be noted: for IC50: Homo sapiens, Caco-2, 72 h, MTT, mean ± SD of three independent experiments; for SI (MDCK) CaCo-2: SI = IC50 MDCK1 / IC50 CaCo-2. The procedure, abridged:
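CaCo-2 cells, plated at 2 × 10^4 cells/mL in DMEM with 10 % FBS at 37 °C/5% CO2, were treated 24 h later with five 10-fold dilutions (10^−7 to 10^−4 M) for 72 h. Viability was measured by MTT (4 h, formazan dissolved in DMSO, OD 595 nm) against background and untreated controls. GI50 came from log-concentration versus percent-inhibition fits.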

Data set [4] concerns HuT78 (T-cell lymphoma) cells. Kind of data set: MTT antiproliferative assay, HuT78. The data set is classed as cell-based, human. To be noted: for IC50: Homo sapiens, HuT78, 72 h, 72 h, MTT, mean ± SD of three independent experiments; for SI (BJ) HuT78: SI = IC50 BJ / IC50 HuT78; for SI (MDCK) HuT78: SI = IC50 MDCK1 / IC50 HuT78. The essentials:
as §1

In data set [5] the test system is SW620 (colorectal adenocarcinoma, metastatic) cells. Kind of data set: MTT antiproliferative assay, SW620. It is filed as cell-based, human. The note with it: for IC50: Homo sapiens, SW-620. The procedure: (§2) The growth inhibition activity was assessed according to the slightly modified procedure performed at the National Cancer Institute, Developmental Therapeutics Program.
(§3) Examined compounds were dissolved in DMSO (1 × 10^−2 M). The experiments were carried out on seven human tumor cell lines and two normal cell lines. The following cell lines were used: HeLa (human cervical adenocarcinoma; purchased from ATCC), CaCo-2 (human colorectal adenocarcinoma), HuT78 (T-cell lymphoma), THP-1 (acute monocytic leukemia), SW620 (colorectal adenocarcinoma, metastatic), MDA-MB-231 (human breast adenocarcinoma), HL60 (promyelocytic leukemia cell line), foreskin fibroblast cells (BJ) and MDCK1 (Madine–Darby canine kidney fibroblast like cells). MDCK1 cells were used between 24 and 26 passages.
(§4) Adherent cells were cultured in the Dulbecco’s modified Eagle medium—DMEM (Gibco, EU) supplemented with 10 % heat-inactivated fetal bovine serum (FBS, Gibco, EU), 2 mM glutamine, and 100 U/0.1 mg penicillin/streptomycin. Cells on suspension were cultured in RPMI 1640 (Gibco, EU) medium supplemented with 10 % FBS (Gibco, EU), 2 mM glutamine, 1 mM sodium pyruvate, 10 mM HEPES. Cells were grown in humidified atmosphere under the conditions of 37 °C/5% of CO2 gas in the CO2 incubator (IGO 150 CELLlife^TM, JOUAN, Thermo Fisher Scientific, Waltham, MA, USA). A erythrosin B (Sigma-Aldrich, St. Louis, MO, USA) dye exclusion method was used to assess cell viability before plating.
(§5) Adherent cells (HeLa, CaCo-2, MCF-7 and MDCK-1) were plated in 96-well flat bottom plates (Greiner, Frickenhausen, Austria) at a concentration of 2 × 10^4 cells/mL. Suspension cells (THP-1 and HuT78) were plated in 96-well microtiter plates (Sarstead, Newton, USA) at a concentration of 1 × 10^5 cells/mL. Twenty-four hours later, cells were treated with test agents in […] 10-fold dilutions ([…] to 10^−4 M) and incubated for further 72 h. Working dilutions were freshly prepared on the day of testing. The solvent was also tested for eventual inhibitory activity by adjusting its concentration to be the same as in working concentrations. After 72 h of incubation, the cell growth rate was evaluated by performing the MTT assay, which detects dehydrogenase activity in viable cells. For this purpose, upon completion of the incubation period, growth medium was discarded and 50 μL of MTT was added to each well at a concentration of 5 mg/mL. After four hours of incubation at 37 °C, water insoluble MTT-formazan crystals were dissolved in 150 μL of dimethyl-sulfoxide (DMSO) for adherent cells, and in 10 % SDS with 0.01 M/L HCl for cells grown in suspension. The absorbance (OD, optical density) was measured on a microplate reader (iMark, BIO RAD, Hercules, CA, USA) at 595 nm.
(§6) Percent of life cells was calculated as follows: % = OD (sample)–OD (background)/OD (control)–OD (background) × 100.
(§7) Optical density (OD) of background for adherent cells is the OD of MTT solution and DMSO; OD (background) for suspension cells is OD of the culture medium with MTT and 10% SDS with 0.01 M/L HCl; OD (control) is the OD of the cells growth without tested compounds.
(§8) Calculation of GI50 value curves and QC analysis is performed by using the Excel tools and GraphPadPrism software (La Jolla, CA), v. 5.03. Briefly, individual concentration effect curves are generated by plotting the logarithm of the concentration of tested compounds(X) vs. corresponding percent inhibition values (Y) using least squares fit. The best fit GI50 values are calculated using Log (inhibitor) versus normalized response—Variable slope equation, where Y Ľ 100/(1 ţ 10 ((LogIC50 _ X) * HillSlope)). QC criteria parameters (Z0, S:B, R2, HillSlope) were checked for every GI50 curve.

Data set [6] concerns MDA-MB-231 (human breast adenocarcinoma) cells. Kind of data set: MTT antiproliferative assay, MDA-MB-231. The data set is classed as cell-based. The note with it: for IC50: Homo sapiens, MDA-MB-231, 72 h, MTT, mean ± SD of three independent experiments. The procedure:
as §2, §3, §4, §5, §6, §7, §8

Data set [7] deals with HL60 (promyelocytic leukemia) cells. Kind of data set: MTT antiproliferative assay, HL60. The data set is classed as cell-based, human. To be noted: for IC50: Homo sapiens, HL-60, 72 h, MTT, mean ± SD of three independent experiments; for SI (MDCK) HL60: SI = IC50 MDCK1 / IC50 HL60. On the procedure: as §2, §3, §4, §5, §6, §7, §8
The test system of data set [8] is THP1 (human monocytic leukemia) cells. The data set is described as follows: MTT antiproliferative assay, THP1. The data set is classed as cell-based. To be noted: for IC50: Homo sapiens, THP-1, 72 h, MTT, mean ± SD of three independent experiments; for SI (MDCK) THP1: SI = IC50 MDCK1 / IC50 THP1. On the procedure:
as §2, §3, §4, §5, §6, §7, §8

The mark [9] stands for this setting: 72 h, MTT, mean ± SD of three independent experiments, read-out: IC50 (µM) SW620.

As for `COc1cc(-c2nc3ccc(C4=NCCCN4)cc3s2)ccc1OCc1ccccn1` [39c], the concentration for half-maximal inhibition (IC50) in [1] was over 100 µM; with human fibroblasts (BJ), 38.1 ± 1.4 µM; in data set [2], over 100 µM; in [3], 34.7 ± 2.8 µM; in data set [4], 12.7 ± 0.9 µM; in data set [5] (setting [9]) it was 34.2 ± 7.1 µM. The half-maximal inhibitory concentration (IC50) in data set [6] was 38.5 ± 1.6 µM; in [7], 31.1 ± 3 µM; in data set [8], 69.7 ± 6.3 µM. Moreover, the “SI (MDCK) CaCo-2” value in data set [3] turned out to be 2.87. In data set [4], the “SI (BJ) HuT78” value was 3. The “SI (MDCK) HuT78” value in data set [4] is listed as 7.87. Also, the “SI (MDCK) SW620” value in data set [5] (SI = IC50 MDCK1 / IC50 SW620) was 2.92. The “SI (MDCK) MDA-MB-231” value in [6] (SI = IC50 MDCK1 / IC50 MDA-MB-231) was determined as 2.6. Also, the “SI (MDCK) HL60” value in data set [7] turned out to be 3.22. In data set [8], the “SI (MDCK) THP1” value turned out to be 1.43.
For `c1ccc(COc2ccc(-c3nc4ccc(C5=NCCCN5)cc4[nH]3)cc2)nc1` [43a], the half-inhibitory concentration (IC50) in data set [1] was over 100 µM; in the data set on human fibroblasts (BJ) it was 33 ± 20.3 µM; in [2] it was over 100 µM; in data set [3] it was over 100 µM; in data set [4], 28.6 ± 3.9 µM; in data set [5] (setting [9]) it was over 100 µM. For the same molecule, the IC50 in data set [6] is over 100 µM; in data set [7], 40.4 ± 12 µM; in [8], 29.7 ± 8.6 µM. Moreover, the “SI (MDCK) HuT78” value in [4] is 3.5. Also, in [7], the “SI (MDCK) HL60” value came out at 2.48. Also, the “SI (MDCK) THP1” value in data set [8] is listed as 3.37.
As to `COc1cc(-c2nc3ccc(C4=NCCN4)cc3s2)ccc1OCc1c[nH]nn1.Cl` [36c, 2-(3-Methoxy-4-((1H-1,2,3-triazol-4-yl)methoxy)phenyl)-6-(4,5-dihydro-1H-imidazol-2-yl)benzothiazole hydrochloride], the half-maximal inhibitory concentration (IC50) in [1] is over 100 µM; in the data set on human fibroblasts (BJ) it was over 100 µM; in data set [2], over 100 µM; in data set [3], over 100 µM; in data set [4] it was 1.6 ± 0.8 µM; in [5] (setting [9]), over 100 µM. In addition, the half-inhibitory concentration (IC50) in [6], in data set [7] and in [8] was over 100 µM in each case. Moreover, the “SI (MDCK) HuT78” value in [4] was 62.5.
Regarding `O=C(COc1ccc(-c2nc3ccc(C4=NCCCN4)cc3s2)cc1F)c1ccccc1` [38b], the IC50 in data set [1] stood at 26.6 ± 3.1 µM; in the data set with human fibroblasts (BJ), 32.2 ± 2.8 µM; in data set [2], 22.1 ± 1.2 µM; in data set [3], 19.4 ± 4.7 µM; in data set [4], 4 ± 0.9 µM; in data set [5] (setting [9]), 30.5 ± 9.2 µM. Besides, the half-inhibitory concentration (IC50) in data set [6] was 42.4 ± 7.2 µM; in data set [7], 15.8 ± 2.3 µM; in data set [8], 14.7 ± 4.1 µM. In addition, the “SI (BJ) CaCo-2” value in data set [3] (SI = IC50 BJ / IC50 CaCo-2) was determined as 1.66. Further, the “SI (MDCK) CaCo-2” value in [3] was found to be 1.37. In addition, the “SI (BJ) HuT78” value in data set [4] is reported as 8.05. Further, the “SI (MDCK) HuT78” value in data set [4] is recorded as 6.65. Moreover, the “SI (BJ) HL60” value in data set [7] (SI = IC50 BJ / IC50 HL60) stood at 2.04. Besides, in data set [7], the “SI (MDCK) HL60” value stood at 1.68. The “SI (BJ) THP1” value in data set [8] (SI = IC50 BJ / IC50 THP1) is 2.19. Moreover, the “SI (MDCK) THP1” value in data set [8] is reported as 1.8.
Consider `Cl.c1cc(-c2nc3ccc(C4=NCCN4)cc3s2)ccc1OCc1c[nH]nn1` [36a, 2-(4-((1H-1,2,3-triazol-4-yl)methoxy)phenyl)-6-(4,5-dihydro-1H-imidazol-2-yl)benzothiazole hydrochloride], for which the melting point lay within 218 to 221 °C. The molecule also showed a concentration for half-maximal inhibition (IC50) in data set [2] of 62.6 ± 22 µM. The molecule further registered a concentration for half-maximal inhibition (IC50) in data set [3] of 24.8 ± 9.2 µM. In data set [4], the IC50 was 4.4 ± 3.9 µM and the “SI (MDCK) HuT78” value stood at 7.23. Moreover, in data set [5] (setting [9]), the half-inhibitory concentration (IC50) amounted to 5.6 ± 1.2 µM. Moreover, the IC50 in [5] (span over SW620, MDA-MB-231, HL60, THP1, read-out: IC50 values on additional set of tumor cells) lay in the range of 5.6 to 33 µM. The IC50 in data set [6] was 33 ± 4.9 µM. Further, the IC50 in data set [7] was 18.8 ± 1.1 µM. Also, in [8], inhibition was half-maximal at 20.4 ± 3.3 µM (IC50).
